Source: patent US12577234B2, “Antagonists of the muscarinic acetylcholine receptor M4” (Vanderbilt University, priority 2017, dated 2026)

Biological target: T1, human mAChR M4 (Homo sapiens, UniProt P08173)
T1 construct: expressed in transfected cells; host or cells: CHO-K1 (ATCC), stably co-expressing chimeric G protein Gqi5
T1 sequence (P08173 1-479): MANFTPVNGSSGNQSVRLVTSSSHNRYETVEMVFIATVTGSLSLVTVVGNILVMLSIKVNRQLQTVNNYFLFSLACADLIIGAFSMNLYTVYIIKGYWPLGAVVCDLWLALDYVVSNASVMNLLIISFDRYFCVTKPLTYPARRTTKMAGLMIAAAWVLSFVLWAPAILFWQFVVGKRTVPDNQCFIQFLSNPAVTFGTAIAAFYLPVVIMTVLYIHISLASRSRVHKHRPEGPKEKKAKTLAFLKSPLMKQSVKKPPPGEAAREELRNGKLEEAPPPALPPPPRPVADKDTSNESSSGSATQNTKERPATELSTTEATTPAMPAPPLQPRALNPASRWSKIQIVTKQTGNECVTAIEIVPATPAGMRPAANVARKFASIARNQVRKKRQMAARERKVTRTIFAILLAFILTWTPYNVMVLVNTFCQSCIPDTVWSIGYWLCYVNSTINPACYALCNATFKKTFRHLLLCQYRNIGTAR
Experiment: mAChR M4 cell-based functional assay (calcium mobilization, EC80 acetylcholine), human M4
Conditions: for IC50: M4/Gqi5/CHO-K1 cells, decrease of EC80 acetylcholine response; for Emin: human M4, % ACh maximum at 30 μM
Experimental: Human or rat M4 cDNA, along with the chimeric G protein Gqi5, were transfected into Chinese hamster ovary (CHO-K1) cells purchased from the American Type Culture Collection using Lipofectamine2000. M4/Gqi5/CHO cells were grown in Ham's F-12 medium containing 10% heat-inactivated fetal bovine serum (FBS), 20 mM HEPES, 500 μg/mL G418 sulfate, and 200 μg/mL Hygromycin B.
For high throughput measurement of agonist-evoked increases in intracellular calcium, CHO-K1 cells stably expressing muscarinic receptors were plated in growth medium lacking G418 and hygromycin at 15,000 cells/20 μL/well in Greiner 384-well black-walled, tissue culture (TC)-treated, clear-bottom plates (VWR). Cells were incubated overnight at 37° C. and 5% CO2. […] Compound master plates were formatted in a 10 point concentration-response curve (CRC) format (1:3 dilutions) in 100% DMSO with a starting concentration of 10 or 1 mM using a BRAVO liquid handler (Agilent). Test compound CRCs were then transferred to daughter plates (240 nL) using the Echo acoustic plate reformatter (Labcyte, Sunnyvale, CA) and then diluted into assay buffer (40 μL) to a 2× stock using a Thermo Fisher Combi (Thermo Fisher Scientific, Waltham, MA).
Calcium flux was measured using the Functional Drug Screening System (FDSS) 6000 or 7000 (Hamamatsu Corporation, Tokyo, Japan) as an increase in the fluorescent static ratio. Compounds were applied to cells (20 μL, 2×) using the automated system of the FDSS at 2 seconds into the protocol and the data were collected at 1 Hz. […] Agonist activity was analyzed as a concentration-dependent increase in calcium mobilization upon compound addition. Positive allosteric modulator activity was analyzed as a concentration-dependent increase in the EC20 acetylcholine response. Antagonist activity was analyzed as a concentration-dependent decrease in the EC80 acetylcholine response; for the purposes of the tables herein, an IC50 (inhibitory concentration 50) was calculated as a concentration-dependent decrease of the response elicited by an EC80 concentration of acetylcholine. Concentration-response curves were generated using a four-parameter logistical equation in XLFit curve fitting software (IDBS, Bridgewater, NJ) for Excel (Microsoft, Redmond, WA) or Prism (GraphPad Software, Inc., San Diego, CA) or the Dotmatics software platform (Dotmatics, Bishop's Stortford, UK).

| Molecule | IC50 (Table 9) [nM] | Emin (Table 9) [%] | Human M4 Emin (Table 10) [%] | IC50 (Table 10) [nM] |
| --- | --- | --- | --- | --- |
| O=C(Nc1ccc(-c2ccc(F)cc2Cl)nn1)C1C[C@@H]2CN(CC3CC4C=CC3C4)C[C@@H]2C1 (stereo partly drawn) [Compound 75, (3aR,6aS)-2-(5-bicyclo[2.2.1]hept-2-enylmethyl)-N-[6-(2-chloro-4-fluoro-phenyl)pyridazin-3-yl]-3,3a,4,5,6,6a-hexahydro-1H-cyclopenta[c]pyrrole-5-carboxamide] | 2780 | 3.25 | – | – |
| Fc1ccc(Cl)c(-c2ccc(N[C@H]3C[C@@H]4CN(Cc5cnccn5)C[C@@H]4C3)nn2)c1 [Compound 170, (3aR,5s,6aS)-N-[6-(2-chloro-5-fluoro-phenyl)pyridazin-3-yl]-2-(pyrazin-2-ylmethyl)-3,3a,4,5,6,6a-hexahydro-1H-cyclopenta[c]pyrrol-5-amine] | – | – | 5 | 54.3 |
| CC(=O)Nc1ccccc1-c1ccc(N[C@H]2C[C@@H]3CN(CC4CCOCC4)C[C@@H]3C2)nn1 [Compound 206, N-[2-[6-[[(3aR,5s,6aS)-2-(tetrahydropyran-4-ylmethyl)-3,3a,4,5,6,6a-hexahydro-1H-cyclopenta[c]pyrrol-5-yl]amino]pyridazin-3-yl]phenyl]acetamide] | – | – | 38 | 57.4 |
| Fc1cnc(Cl)c(-c2ccc(N[C@H]3C[C@@H]4CN(CC5CCOCC5)C[C@@H]4C3)nn2)c1 [Compound 220, (3aR,5s,6aS)-N-[6-(2-chloro-5-fluoro-3-pyridyl)pyridazin-3-yl]-2-(tetrahydropyran-4-ylmethyl)-3,3a,4,5,6,6a-hexahydro-1H-cyclopenta[c]pyrrol-5-amine] | – | – | 4 | 0.399 |
| Cc1cnn(C)c1-c1ccc(NC(=O)C2CC3CN(CC4CC5C=CC4C5)CC3C2)nn1 (stereo not drawn) [Compound 77, 2-(5-bicyclo[2.2.1]hept-2-enylmethyl)-N-[6-(2,4-dimethylpyrazol-3-yl)pyridazin-3-yl]-3,3a,4,5,6,6a-hexahydro-1H-cyclopenta[c]pyrrole-5-carboxamide] | 408 | 3.86 | – | – |
| Cc1cnn(C)c1-c1ccc(N[C@H]2C[C@@H]3CN(CC4CCCOC4)C[C@@H]3C2)nn1 (stereo partly drawn) [Compound 22, (3aR,5s,6aS)-N-[6-(2,4-dimethylpyrazol-3-yl)pyridazin-3-yl]-2-(tetrahydropyran-3-ylmethyl)-3,3a,4,5,6,6a-hexahydro-1H-cyclopenta[c]pyrrol-5-amine] | 81.5 | 4.08 | – | – |
| CC(C)CN1C[C@H]2C[C@H](Nc3ccc(-c4cc(F)ccc4Cl)nn3)C[C@H]2C1 [Compound 177, (3aR,5s,6aS)-N-[6-(2-chloro-5-fluoro-phenyl)pyridazin-3-yl]-2-isobutyl-3,3a,4,5,6,6a-hexahydro-1H-cyclopenta[c]pyrrol-5-amine] | – | – | 3 | 5.02 |
| Fc1ccc(Cl)c(-c2ccc(O[C@@H]3C[C@@H]4CN(CC5CC6C=CC5C6)C[C@@H]4C3)nn2)c1 (stereo partly drawn) [Compound 53, (3aR,5r,6aS)-2-(5-bicyclo[2.2.1]hept-2-enylmethyl)-5-[6-(2-chloro-5-fluoro-phenyl)pyridazin-3-yl]oxy-3,3a,4,5,6,6a-hexahydro-1H-cyclopenta[c]pyrrole] | 100 | 3.21 | – | – |
| CC(=O)Nc1ccc(-c2ccc(O[C@H]3C[C@@H]4CN(Cc5ccc(F)cc5)C[C@@H]4C3)nn2)cc1 [Compound 131, N-[4-[6-[[(3aR,5s,6aS)-2-[(4-fluorophenyl)methyl]-3,3a,4,5,6,6a-hexahydro-1H-cyclopenta[c]pyrrol-5-yl]oxy]pyridazin-3-yl]phenyl]acetamide] | – | – | 3 | 977 |
| Fc1ccc(Cl)c(-c2ccc(N[C@H]3C[C@@H]4CN(CC5CC6C=CC5C6)C[C@@H]4C3)nn2)c1 (stereo partly drawn) [Compound 27, (3aR,5s,6aS)-2-(5-bicyclo[2.2.1]hept-2-enylmethyl)-N-[6-(2-chloro-5-fluoro-phenyl)pyridazin-3-yl]-3,3a,4,5,6,6a-hexahydro-1H-cyclopenta[c]pyrrol-5-amine] | 9.3 | 5.94 | – | – |
| Cc1cnn(C)c1-c1ccc(NC(=O)[C@H]2C[C@@H]3CN(CCC(C)(C)C)C[C@@H]3C2)nn1 [Compound 145, (3aR,5s,6aS)-2-(3,3-dimethylbutyl)-N-[6-(2,4-dimethylpyrazol-3-yl)pyridazin-3-yl]-3,3a,4,5,6,6a-hexahydro-1H-cyclopenta[c]pyrrole-5-carboxamide] | – | – | 4 | 239 |
| CC(=O)Nc1ccc(-c2cnc(N[C@H]3C[C@@H]4CN(CC5CCOCC5)C[C@@H]4C3)cn2)cc1 [Compound 158, N-[4-[5-[[(3aR,5s,6aS)-2-(tetrahydropyran-4-ylmethyl)-3,3a,4,5,6,6a-hexahydro-1H-cyclopenta[c]pyrrol-5-yl]amino]pyrazin-2-yl]phenyl]acetamide] | – | – | 10 | 1090 |
| Cc1nn(C)cc1-c1ccc(N[C@H]2C[C@@H]3CN(CC4CCOCC4)C[C@@H]3C2)nc1 [Compound 152, (3aR,5s,6aS)-N-[5-(1,3-dimethylpyrazol-4-yl)-2-pyridyl]-2-(tetrahydropyran-4-ylmethyl)-3,3a,4,5,6,6a-hexahydro-1H-cyclopenta[c]pyrrol-5-amine] | – | – | 8 | 1580 |
| CC(C)(C)CCN1C[C@H]2C[C@@H](Oc3ccc(-c4cc(F)ccc4Cl)nn3)C[C@H]2C1 [Compound 54, (3aR,5r,6aS)-5-[6-(2-chloro-5-fluoro-phenyl)pyridazin-3-yl]oxy-2-(3,3-dimethylbutyl)-3,3a,4,5,6,6a-hexahydro-1H-cyclopenta[c]pyrrole] | 222 | 3.07 | – | – |
| c1ccc(-c2ccc(N[C@H]3C[C@@H]4CN(CC5CCOCC5)C[C@@H]4C3)nn2)cc1 [Compound 197, (3aR,5s,6aS)-N-(6-phenylpyridazin-3-yl)-2-(tetrahydropyran-4-ylmethyl)-3,3a,4,5,6,6a-hexahydro-1H-cyclopenta[c]pyrrol-5-amine] | – | – | 9 | 1.25 |
| Cc1cnn(C)c1-c1ccc(OC[C@H]2C[C@@H]3CN(CCC(C)(C)C)C[C@@H]3C2)nn1 [Compound 146, (3aR,5s,6aS)-2-(3,3-dimethylbutyl)-5-[[6-(2,4-dimethylpyrazol-3-yl)pyridazin-3-yl]oxymethyl]-3,3a,4,5,6,6a-hexahydro-1H-cyclopenta[c]pyrrole] | – | – | 4 | 167 |
| (3aR,6aS)-2-(5-bicyclo[2.2.2]oct-2-enylmethyl)-5-[[6-(1,3-dimethylpyrazol-4-yl)pyridazin-3-yl]oxymethyl]-3,3a,4,5,6,6a-hexahydro-1H-cyclopenta[clpyrrole [Compound 94] | 42.6 | 3.67 | – | – |
| Cc1cnn(C)c1-c1ccc(N[C@H]2C[C@@H]3CN(CC45CC6CC(CC(C6)C4)C5)C[C@@H]3C2)nn1 [compound 16] | 26 | – | – | – |
| Cc1noc(C)c1-c1ccc(O[C@H]2C[C@@H]3CN(CCC(C)(C)C)C[C@@H]3C2)nn1 [Compound 136, 4-[6-[[(3aR,5s,6aS)-2-(3,3-dimethylbutyl)-3,3a,4,5,6,6a-hexahydro-1H-cyclopenta[c]pyrrol-5-yl]oxy]pyridazin-3-yl]-3,5-dimethyl-isoxazole] | – | – | 3 | 174 |
| CCC(C)CN1C[C@H]2CC(COc3ccc(-c4cn(C)nc4C)nn3)C[C@H]2C1 (stereo partly drawn) [Compound 95, (3aR,6aS)-5-[[6-(1,3-dimethylpyrazol-4-yl)pyridazin-3-yl]oxymethyl]-2-(2-methylbutyl)-3,3a,4,5,6,6a-hexahydro-1H-cyclopenta[c]pyrrole] | 659 | 4.74 | – | – |
